Assay results reported in US8895544B2, “Indazoles” (Pfizer Limited, priority 2011, dated 2014).

How the values were obtained:
[1] = test system: pYSTAT5 in PBMC lymphocytes; assay: Duration of action (DoA) after washout, pYSTAT5 in PBMC lymphocytes; assay type: cell-based, human; details: incubated at approximate IC80 for 1 h, then washed
Procedure: 90 μl of PBMC cell suspension was added to each well of a 96 well plate (Corning-Costar 3598) along with 10 μl of test compound dilution giving a final assay concentration range of 0.03 nM to 1 μM in half log increments. The plates were incuated at 37° C., in […] for 1 h before 10 μl rhIL2 (3 μg/ml final assay concentration) was added to appropriate wells and the plates incubated at the stated conditions for a further 15 min. 25 μl of 20% formaldehyde (Tousimis) was added to all wells and the plates left at room temperature for 10 min prior to centrifugation at 400 g for 4 min at room temperature. 200 μl PBS was added to each well and centrifugation repeated as just described. The supernatent was removed and 50 μl of a 1:50 dilution of Mouse anti-human CD3 (BD Biosciences 555329) in 0.1% BSA (Sigma A7906)/PBS added to each well (excluding control wells) and the plates incubated at room temperature in the dark for 30 min. […] Plates were read the next day on a FACS Canto (Becton Dickinson). […]
For determination of compound duration of action (DoA) cells were incubated with compound at an approximate IC80 concentration for 1 h before being washed by cenrifugation and resuspension in assay media without compound. […] DoA was calculated as the time taken for the inhibition to reverse by 50% (T50%)

[2] = test system: IFNγ production in human isolated PBMC; assay: hrIL2/haCD3 stimulated IFNγ production in human isolated PBMC; assay type: cell-based; details: IL-2/aCD3 stimulated IFNγ, 18 h
Procedure: Functional Assessment of JAK Inhibitory Potency Using hrIL-2 and haCD3 stimuated IFNγ Production in Human Isolated PBMC.
(§1) Isolation of human Peripheral Blood Mononuclear Cells (PBMC)
Peripheral venous blood from healthy volunteers of either sex was collected into 50 ml centrifuge tubes (Corning) containing 1 ml of 5 mg/ml heparin (Sigma H3400) in distilled water. The heparininsed blood was diluted using an equal volume of sterile Dulbeccos phosphate buffered saline (PBS: Invitrogen 14190) before decanting into 50 ml Leucosep tubes (Sigma A0561). […]
180 μl of PBMC cell suspension was added to each well of a sterile 96 well, flat bottomed plate (Corning-Costar 3598). […] 100 μl supernatent was collected, diluted 1:4 and IFNγ content determined using a commercially available IFNγ ELISA kit (Invitrogen CHC1233) as per the manufacturer's instructions. Absorbances were measured using a Spectramax 190/250 plate reader (Molecular Devices). The IFNγ concentration of test wells was expressed as % of the IFNγ concentration produced in wells exposed to IL-2/aCD3 in the absence of test compound, and IC50 values determined using a 4 parameter curve fit.

[3] = test system: pYSTAT5 in PBMC lymphocytes; assay: hrIL2/haCD3 stimulated pYSTAT5 in PBMC lymphocytes; assay type: cell-based; details: rhIL2 stimulated pYSTAT5, human PBMC lymphocytes
Procedure: as §1
Peripheral venous blood from healthy volunteers of either sex was collected into 50 ml centrifuge tubes (Corning) containing 1 ml of 5 mg/ml heparin (Sigma H3400) in distilled water. The heparininsed blood was diluted using an equal volume of sterile Dulbeccos phosphate buffered saline (PBS: Invitrogen 14190) before decanting into 50 ml Leucosep tubes (Sigma A0561). The Leucosep tubes were centrifuged at 400 g for 30 min at room temperature and the buffycoat at the Ficoll:Plamsa interface collected into clean centrifuge tubes and the volum made up to 50 ml using PBS and centrifuging at 200 g for 10 min at room temperature. The supernatent was discarded and the pellet resuspended in assay media (Dulbeccos Modified Essential Medium (DMEM: Invitrogen 11971025) containing 5% Foetal Bovine Serum, 100 U/mIpenicilin/100 μg/ml streptomycin (Sigma P4458) at 2×10^6 lymphocytes per ml for IFNγ experiments and at 1×10^6 lymphocytes per ml for the pYSTAT5 experiments.
hrIL2/haCD3 Stimulated pYSTAT5 in PBMC Lymphocytes
90 μl of PBMC cell suspension was added to each well of a 96 well plate (Corning-Costar 3598) along with 10 μl of test compound dilution giving a final assay concentration range of 0.03 nM to 1 μM in half log increments. […] Plates were read the next day on a FACS Canto (Becton Dickinson). […]

[4] = test system: JAK1/3; assay: JAK1/3 whole cell reporter gene assay (IL-4 stimulated STAT6-beta-lactamase reporter); assay type: cell-based; details: Cellsensor STAT6-bla-RA-1 cell line, CD40 ligand and IL-4 stimulated
Procedure: JAK1/3 Whole Cell Reporter Gene Assay
4 mM stock solutions of test compounds are prepared and serially diluted in 100% DMSO. A standard curve using PF-00956980 at a top concentration of 10 mM is also prepared. High percentage effect (HPE) is defined by 10 mM PF-00956980 and 0% effect (ZPE) is defined by 100% DMSO. Plates containing 1 μl of serially diluted compound, standard and HPE/ZPE are diluted by addition of 39 μl assay media (Optimem with 100 uM NEAA, 10 uM sodium pyruvate and 100 U penicillin/100 ug streptomycin (Invitrogen)) using a Multidrop Combi. This dilutes test compounds to a top concentration of 100 μM. Final top assay concentration is 10 μM as the assay dilution factor is ten. Final DMSO concentration is 0.25%.
CD40 (Invitrogen) is prepared at 0.1 mg/ml in PBS minus Ca^2+, minus Mg^2+. The concentration of CD40 required for activation is predetermined by CD40 titration with the cell line. […]
Assays are performed in Greiner 384 well black polypropylene clear bottomed plates. The Invitrogen Cellsensor STATE-bla-RA-1 cell line is thawed, counted and resuspended at 1.88×10^6 cells/ml. […] Beta lactamase fluorescence signal is read at 460 nm (blue) and 530 nm (green) and a ratio calculated using an Envision. Test compound data are expressed as percentage inhibition defined by HPE and ZPE values for each plate. […]

[5] = target: JAK2 (Homo sapiens (Human), UniProt O60674); assay: JAK2 PathHunter assay (prolactin response, U2OS cell line); assay type: cell-based; details: PathHunter U2OS cell line expressing JAK2, prolactin challenge; read-out: JAK-2 IC50
Procedure: JAK1 and JAK2 PathHunter Assay
4 mM stock solutions of test compounds are prepared and serially diluted in 100% DMSO. A standard curve using PF-00956980 at a top concentration of 10 mM is also prepared. High percentage effect (HPE) is defined by 10 mM PF-00956980 and 0% effect (ZPE) is defined by 100% DMSO. Plates containing 1 μl of serially diluted compound, standard and HPE/ZPE are diluted by addition of 65 μl compound diluent (PBS minus Ca^2+, minus Mg^2+ with 0.05% pluronic F127) using a Multidrop Combi. This dilutes test compounds to a top concentration of 60 μM. Final top assay concentration is 10 μM as the assay dilution factor is six. Final DMSO concentration is 0.25%.
Prolactin (Peprotech) is used for the agonist challenge. Prolactin is prepared at 40 μM in compound diluent to generate a stock solution and further diluted to 6 μM in compound diluent. A standard curve is prepared in compound diluent. Prolactin is also diluted to a concentration of 15 nM (2.5 nM fac). Antagonism of the JAK1 or JAK2 prolactin response is measured in the presence of prolactin at an approximate […], concentration for JAK1 and approximately EC100 for JAK2. […]
Assays are performed in Greiner white 384 well plates. […] Luminescence signal is read using an Envision. Test compound data are expressed as percentage inhibition defined by HPE and ZPE values for each plate. […]

[6] = target: JAK3 enzyme (Homo sapiens (Human), UniProt P52333); assay: JAK3 isolated enzyme high ATP Caliper endpoint assay; assay type: biochemical; details: 400 μM ATP, read-out: JAK-3 IC50
JAK3 enzyme, sequence (P52333 whole entry): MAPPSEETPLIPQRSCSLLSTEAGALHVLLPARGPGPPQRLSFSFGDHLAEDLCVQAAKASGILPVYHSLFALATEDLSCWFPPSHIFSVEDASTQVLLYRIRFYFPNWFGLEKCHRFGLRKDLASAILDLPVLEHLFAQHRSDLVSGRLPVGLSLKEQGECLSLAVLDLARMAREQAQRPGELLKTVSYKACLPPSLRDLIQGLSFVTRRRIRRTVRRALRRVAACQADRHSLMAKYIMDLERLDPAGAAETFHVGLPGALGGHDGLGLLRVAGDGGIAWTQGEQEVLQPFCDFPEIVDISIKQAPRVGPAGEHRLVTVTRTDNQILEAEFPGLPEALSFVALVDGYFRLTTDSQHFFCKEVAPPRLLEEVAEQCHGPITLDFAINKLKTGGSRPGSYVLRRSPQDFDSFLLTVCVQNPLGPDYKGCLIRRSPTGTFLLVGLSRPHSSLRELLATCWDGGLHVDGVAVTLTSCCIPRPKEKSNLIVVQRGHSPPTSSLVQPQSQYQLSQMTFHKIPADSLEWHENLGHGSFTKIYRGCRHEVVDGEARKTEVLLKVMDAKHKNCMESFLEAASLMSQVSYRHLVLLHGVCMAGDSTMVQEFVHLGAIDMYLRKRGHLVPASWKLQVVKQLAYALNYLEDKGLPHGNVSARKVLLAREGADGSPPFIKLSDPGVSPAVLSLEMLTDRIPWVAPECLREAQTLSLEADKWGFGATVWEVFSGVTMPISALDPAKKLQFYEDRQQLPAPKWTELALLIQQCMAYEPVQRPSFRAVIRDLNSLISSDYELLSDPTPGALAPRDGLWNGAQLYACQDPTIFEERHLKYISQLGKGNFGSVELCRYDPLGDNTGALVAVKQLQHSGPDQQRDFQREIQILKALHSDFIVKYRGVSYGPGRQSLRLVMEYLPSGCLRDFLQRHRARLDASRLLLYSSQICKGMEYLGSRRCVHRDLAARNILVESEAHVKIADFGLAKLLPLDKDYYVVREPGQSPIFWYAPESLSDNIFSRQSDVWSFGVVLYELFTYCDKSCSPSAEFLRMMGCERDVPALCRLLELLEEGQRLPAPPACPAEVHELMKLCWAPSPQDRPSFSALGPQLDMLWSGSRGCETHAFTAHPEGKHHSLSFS
Procedure: JAK3 Isolated Enzyme High ATP Caliper Endpoint Assay
4 mM stock solutions of test compounds are prepared and serially diluted in 100% DMSO. […] Greiner 384 well plates are prepared containing 400 nl of serially diluted compound, standard and HPE/ZPE. Final top assay concentration is 80 μM as the assay dilution factor is fifty.
JAK3 enzyme stock is diluted to 2 nM in assay buffer (10 mM HEPES free acid pH 7.5, 10 mM HEPES free base pH 7.5, 10 mM MgCL2, 0.0005% Tween-20, 0.01% BSA) containing 2 mM DTT (all supplied by Sigma). ATP is made up at 10 mM stock in sterile water and diluted to 800 μM in assay buffer. Peptide (American peptide company) is made up at 30 mM in 100% DMSO and diluted to 3 μM in assay buffer.
Assays are performed in Greiner polypropylene 384 well plates. Following compound preparation within the plate 10 μl of enzyme in assay buffer containing DTT is added using a Multidrop Micro. Final assay concentration of enzyme is 1 nM. Compound and enzyme are pre-incubated for 60 minutes at room temperature using low evaporation lids before addition of 10 μl ATP/peptide mixture in assay buffer using a Multidrop Micro. […] Plates are foil sealed and incubated for a further 60 minutes at room temperature. Stop solution is added to the plates (20 μl/well) using a Multidrop Micro and plates are loaded onto the Caliper EZReader II. Data is generated by the shift in mobility of non-phosphorylated peptide substrates and phosphorylated products by electrophoresis within a chip and detected via LED induced fluorescence. Data is analysed using LabChip EZReader software which calculates the relative heights of the substrate and product peaks and reports product/product plus substrate peak ratio. Test compound data are subsequently expressed as percentage inhibition defined by HPE and ZPE values for each plate. Percentage inhibition in the presence of test compound is plotted against compound concentration on a log scale to determine an IC50 from the resultant sigmoid curve.

JAK2, sequence (O60674 whole entry): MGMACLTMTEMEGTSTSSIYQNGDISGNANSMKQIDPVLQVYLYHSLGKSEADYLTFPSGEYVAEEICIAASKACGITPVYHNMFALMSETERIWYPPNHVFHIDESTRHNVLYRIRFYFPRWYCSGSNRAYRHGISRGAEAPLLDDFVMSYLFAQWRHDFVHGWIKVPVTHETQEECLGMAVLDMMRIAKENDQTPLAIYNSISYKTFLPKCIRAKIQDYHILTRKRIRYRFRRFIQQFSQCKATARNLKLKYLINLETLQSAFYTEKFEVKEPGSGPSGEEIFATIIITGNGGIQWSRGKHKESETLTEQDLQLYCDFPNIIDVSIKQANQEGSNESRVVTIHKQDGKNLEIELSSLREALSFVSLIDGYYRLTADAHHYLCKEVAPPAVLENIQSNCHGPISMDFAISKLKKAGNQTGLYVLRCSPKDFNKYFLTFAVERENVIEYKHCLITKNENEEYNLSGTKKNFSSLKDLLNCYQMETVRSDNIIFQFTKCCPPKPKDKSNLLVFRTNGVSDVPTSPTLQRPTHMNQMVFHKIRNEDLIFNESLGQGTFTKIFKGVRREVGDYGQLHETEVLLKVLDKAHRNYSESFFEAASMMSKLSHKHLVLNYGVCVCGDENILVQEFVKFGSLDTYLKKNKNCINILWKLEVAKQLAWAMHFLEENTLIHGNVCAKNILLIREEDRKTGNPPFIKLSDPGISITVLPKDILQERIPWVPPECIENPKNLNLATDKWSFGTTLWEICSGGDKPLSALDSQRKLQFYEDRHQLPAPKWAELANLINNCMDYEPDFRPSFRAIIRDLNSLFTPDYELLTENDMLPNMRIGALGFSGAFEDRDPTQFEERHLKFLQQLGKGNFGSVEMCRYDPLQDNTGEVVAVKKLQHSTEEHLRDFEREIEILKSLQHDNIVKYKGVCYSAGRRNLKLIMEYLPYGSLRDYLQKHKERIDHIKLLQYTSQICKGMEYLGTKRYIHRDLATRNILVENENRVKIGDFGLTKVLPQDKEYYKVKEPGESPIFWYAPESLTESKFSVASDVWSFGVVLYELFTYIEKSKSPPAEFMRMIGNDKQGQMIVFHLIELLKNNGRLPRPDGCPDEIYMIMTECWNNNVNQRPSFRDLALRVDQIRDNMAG

`CCc1cc(O)c(F)cc1-c1ccc2c(-c3nc4c([nH]3)CCN(C(=O)c3cnc(N5CCCCC5)cn3)C4)n[nH]c2c1` [Example 4, {2-[6-(2-Ethyl-5-fluoro-4-hydroxy-phenyl)-1H-indazol-3-yl]-1,4,6,7-tetrahydro-imidazo[4,5-c]pyridin-5-yl}-(5-piperidin-1-yl-pyrazin-2-yl)-methanone] was tested, and the “DoA (time taken for the inhibition to reverse by 50%, T50%)” value [1] was > 8.8 h, the IC50 [2] was 70 nM and the IC50 [3] was 45 nM. It also gave an IC50 [4] of 140 nM, an IC50 [5] of 176 nM and an IC50 [6] of 0.5 nM.
